The source of these data is patent US6608082B1, “Treatment of erectile dysfunction using isoquinoline compound melanocortin receptor ligands” (Lion Bioscience AG, priority 1998, dated 2003).

One may read the IC50 as the concentration that gives 50% inhibition.

One experiment deals with T1, MCR-4 (Homo sapiens, UniProt P32245).
T1 construct: expressed in transfected cells; host or cells: HEK 293
Description: Melanocortin receptor binding assay, competition with 125I-HP 467, HEK 293 cells expressing hMCR-4. As to conditions: inhibition of binding of 125I-HP 467, HEK 293 cells expressing MCR-4, TRG 2414 library; for IC50: read-out: MC-4 IC50. The essentials:
(§1)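 Intact-cell competition binding, 2.5 hr at 37 °C, in PBS/10% calf serum/1 mM CaCl2; hMCR-4 cells at 4×10^3 per tube, hMCR-1 cells at 2×10^4 per tube. Filtration on BSA/CaCl2-soaked GF/B, cold 50 mM Tris pH 7.4 washes, scintillation count.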

The target in the next experiment is T2, MCR-1 (Homo sapiens, UniProt Q01726).
T2 construct: expressed in transfected cells; host or cells: HEK 293
T2 sequence (Q01726 whole entry): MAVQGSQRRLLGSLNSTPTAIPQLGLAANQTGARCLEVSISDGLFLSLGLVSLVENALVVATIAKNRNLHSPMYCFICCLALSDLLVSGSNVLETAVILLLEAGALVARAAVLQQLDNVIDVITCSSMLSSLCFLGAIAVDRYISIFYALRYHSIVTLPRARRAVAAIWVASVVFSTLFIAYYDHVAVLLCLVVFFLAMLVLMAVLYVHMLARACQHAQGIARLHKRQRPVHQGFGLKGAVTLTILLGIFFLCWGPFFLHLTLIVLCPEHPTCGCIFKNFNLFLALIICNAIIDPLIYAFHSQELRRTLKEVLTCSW
Description: Melanocortin receptor binding assay, competition with 125I-HP 467, HEK 293 cells expressing hMCR-1. Particulars: inhibition of binding of 125I-HP 467, HEK 293 cells expressing MCR-1, TRG 2414 library; for IC50: read-out: MC-1 IC50. A digest of the protocol:
as §1

T1 sequence (P32245 whole entry): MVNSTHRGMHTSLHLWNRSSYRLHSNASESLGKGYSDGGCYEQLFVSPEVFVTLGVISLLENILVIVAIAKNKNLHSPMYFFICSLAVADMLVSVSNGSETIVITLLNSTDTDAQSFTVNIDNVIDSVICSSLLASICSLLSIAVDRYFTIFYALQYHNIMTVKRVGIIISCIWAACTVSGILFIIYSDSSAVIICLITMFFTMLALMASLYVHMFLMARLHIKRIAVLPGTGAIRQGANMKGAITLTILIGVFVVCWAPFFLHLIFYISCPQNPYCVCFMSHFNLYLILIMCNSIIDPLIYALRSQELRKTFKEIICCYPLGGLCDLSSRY

As to `NCC(CCCCN1Cc2ccccc2C(CNCCc2cccc(Cl)c2)C1c1ccc(Oc2ccccc2)cc1)NCCc1ccccc1` (stereo not drawn) [TRG 2414-134], at MCR-4, the “MC-4 IC50” value is on record as “no fit”. Further, the half-maximal inhibitory concentration (IC50) at MCR-1 turned out to be 40.2 µM.

For `NCC(CCCCN1Cc2ccccc2C(CNCCc2cccc(Cl)c2)C1c1ccc(Oc2ccccc2)cc1)NCc1ccccc1` (stereo not drawn) [TRG 2414-135], the results for the IC50 on MCR-4 and at MCR-1 were 46 µM and 10.1 µM, respectively.

For the molecule `CC(C)Cc1ccc(C(C)CNC(CN)CCCCN2Cc3ccccc3C(CNCCc3cccc(Cl)c3)C2c2ccc(Oc3ccccc3)cc2)cc1` (stereo not drawn) [TRG 2414-136], the “MC-4 IC50” value on MCR-4 was “no fit”. Besides, the “MC-1 IC50” value on MCR-1 is given as “no fit”.

In the case of `COc1cccc(CNCC2c3ccccc3CN(CCCCC(N)CN)C2c2ccc(Oc3ccccc3)cc2)c1` (stereo not drawn) [TRG 2414-137], the half-inhibitory concentration (IC50) on MCR-4 was determined as 5.26 µM; at MCR-1 it was 1.21 µM.

As for `COc1cccc(CNCC2c3ccccc3CN(CCCCC(CN)NCCc3ccccc3)C2c2ccc(Oc3ccccc3)cc2)c1` (stereo not drawn) [TRG 2414-138], the IC50 was 16.6 µM at MCR-4 and 10.6 µM on MCR-1.

With `COc1cccc(CNCC2c3ccccc3CN(CCCCC(CN)NCc3ccccc3)C2c2ccc(Oc3ccccc3)cc2)c1` (stereo not drawn) [TRG 2414-139], the half-maximal inhibitory concentration (IC50) on MCR-4 turned out to be 12.6 µM; at MCR-1, 0.788 µM.

As for `COc1cccc(CNCC2c3ccccc3CN(CCCCC(CN)NCC(C)c3ccc(CC(C)C)cc3)C2c2ccc(Oc3ccccc3)cc2)c1` (stereo not drawn) [TRG 2414-140], the “MC-4 IC50” value at MCR-4 is “no fit”. The 50% inhibitory concentration (IC50) on MCR-1 came to 37 µM.

Turning to `COc1ccc(CNCC2c3ccccc3CN(CCCCC(N)CN)C2c2ccc(Oc3ccccc3)cc2)cc1` (stereo not drawn) [TRG 2414-141], the IC50 turned out to be 4.21 µM on MCR-4 and 2.04 µM at MCR-1.

Consider `COc1ccc(CNCC2c3ccccc3CN(CCCCC(CN)NCCc3ccccc3)C2c2ccc(Oc3ccccc3)cc2)cc1` (stereo not drawn) [TRG 2414-142], for which the half-inhibitory concentration (IC50) on MCR-4 amounted to 11.3 µM; at MCR-1, 4.38 µM.

As to `COc1ccc(CNCC2c3ccccc3CN(CCCCC(CN)NCc3ccccc3)C2c2ccc(Oc3ccccc3)cc2)cc1` (stereo not drawn) [TRG 2414-143], the half-maximal inhibitory concentration (IC50) was 14 µM at MCR-4 and 2.35 µM on MCR-1.

Take `COc1ccc(CNCC2c3ccccc3CN(CCCCC(CN)NCC(C)c3ccc(CC(C)C)cc3)C2c2ccc(Oc3ccccc3)cc2)cc1` (stereo not drawn) [TRG 2414-144]: on MCR-4, the “MC-4 IC50” value is reported as “no fit”. The “MC-1 IC50” value at MCR-1 was “no fit”.

As to `COc1ccc(CCNCC2c3ccccc3CN(CCCCC(N)CN)C2c2ccc(Oc3ccccc3)cc2)cc1` (stereo not drawn) [TRG 2414-145], the values for the IC50 on MCR-4 and on MCR-1 were 3.47 µM and 2.05 µM, respectively.

`COc1ccc(CCNCC2c3ccccc3CN(CCCCC(CN)NCc3ccccc3)C2c2ccc(Oc3ccccc3)cc2)cc1` (stereo not drawn) [TRG 2414-147]: the IC50 at MCR-4 was found to be 8.5 µM; at MCR-1, 1.63 µM.

Regarding `COc1ccc(CCNCC2c3ccccc3CN(CCCCC(CN)NCC(C)c3ccc(CC(C)C)cc3)C2c2ccc(Oc3ccccc3)cc2)cc1` (stereo not drawn) [TRG 2414-148], the “MC-4 IC50” value on MCR-4 was “no fit”. Also, on MCR-1, the “MC-1 IC50” value was “no fit”.

Consider `NCC(N)CCCCN1Cc2ccccc2C(CNCc2ccccc2)C1c1ccc(Oc2ccccc2)cc1` (stereo not drawn) [TRG 2414-149], for which the figures for the 50% inhibitory concentration (IC50) at MCR-4 and on MCR-1 were 2.69 µM and 2.86 µM, respectively.

Consider `NCC(CCCCN1Cc2ccccc2C(CNCc2ccccc2)C1c1ccc(Oc2ccccc2)cc1)NCCc1ccccc1` (stereo not drawn) [TRG 2414-150], for which the concentration for half-maximal inhibition (IC50) at MCR-4 was determined as 16.3 µM; at MCR-1, 9.42 µM.

In the case of `NCC(CCCCN1Cc2ccccc2C(CNCc2ccccc2)C1c1ccc(Oc2ccccc2)cc1)NCc1ccccc1` (stereo not drawn) [TRG 2414-151], the IC50 at MCR-4 turned out to be 14.7 µM; at MCR-1, 1.81 µM.

Take `CC(C)Cc1ccc(C(C)CNC(CN)CCCCN2Cc3ccccc3C(CNCc3ccccc3)C2c2ccc(Oc3ccccc3)cc2)cc1` (stereo not drawn) [TRG 2414-152]: the “MC-4 IC50” value on MCR-4 is on record as “no fit”. On MCR-1, the “MC-1 IC50” value is listed as “no fit”.

`NCC(N)CCCCN1Cc2ccccc2C(CNC2CCCCCC2)C1c1ccc(Oc2ccccc2)cc1` (stereo not drawn) [TRG 2414-153]: the IC50 worked out at 4.09 µM on MCR-4 and 0.772 µM at MCR-1.

For `NCC(CCCCN1Cc2ccccc2C(CNC2CCCCCC2)C1c1ccc(Oc2ccccc2)cc1)NCCc1ccccc1` (stereo not drawn) [TRG 2414-154], the IC50 on MCR-4 stood at 7.52 µM; on MCR-1, 4.85 µM.

Consider `NCC(CCCCN1Cc2ccccc2C(CNC2CCCCCC2)C1c1ccc(Oc2ccccc2)cc1)NCc1ccccc1` (stereo not drawn) [TRG 2414-155], for which the IC50 on MCR-4 was 8.94 µM; at MCR-1 it was 2.03 µM.

`CC(C)Cc1ccc(C(C)CNC(CN)CCCCN2Cc3ccccc3C(CNC3CCCCCC3)C2c2ccc(Oc3ccccc3)cc2)cc1` (stereo not drawn) [TRG 2414-156]: the “MC-4 IC50” value on MCR-4 is listed as “no fit”. The IC50 on MCR-1 came to 18.6 µM.

On to `NCC(N)CCCCN1Cc2ccccc2C(CNC2CCCCC2)C1c1ccc(Oc2ccccc2)cc1` (stereo not drawn) [TRG 2414-157], for which the half-maximal inhibitory concentration (IC50) on MCR-4 is 4.11 µM; on MCR-1, 1.11 µM.

For `NCC(CCCCN1Cc2ccccc2C(CNC2CCCCC2)C1c1ccc(Oc2ccccc2)cc1)NCc1ccccc1` (stereo not drawn) [TRG 2414-159], the concentration for half-maximal inhibition (IC50) is 9.82 µM at MCR-4 and 1.4 µM on MCR-1.

As for `CC(C)Cc1ccc(C(C)CNC(CN)CCCCN2Cc3ccccc3C(CNC3CCCCC3)C2c2ccc(Oc3ccccc3)cc2)cc1` (stereo not drawn) [TRG 2414-160], on MCR-4, the “MC-4 IC50” value is recorded as “no fit”. The IC50 at MCR-1 stood at 17.5 µM.

For `CCCOc1ccc(C2C(CNCc3ccccc3C(F)(F)F)c3ccccc3CN2CCCCC(N)CN)cc1` (stereo not drawn) [TRG 2414-161], the IC50 is 11 µM on MCR-4 and 7.98 µM on MCR-1.

In the case of `CCCOc1ccc(C2C(CNCc3ccccc3C(F)(F)F)c3ccccc3CN2CCCCC(CN)NCc2ccccc2)cc1` (stereo not drawn) [TRG 2414-163], the concentration for half-maximal inhibition (IC50) on MCR-4 turned out to be 22.6 µM; on MCR-1, 2.73 µM.

Consider `CCCOc1ccc(C2C(CNCc3ccccc3C(F)(F)F)c3ccccc3CN2CCCCC(CN)NCC(C)c2ccc(CC(C)C)cc2)cc1` (stereo not drawn) [TRG 2414-164], for which the “MC-4 IC50” value at MCR-4 is “no fit”. Further, at MCR-1, the “MC-1 IC50” value was “no fit”.

On to `CCCOc1ccc(C2C(CNCc3ccccc3OCC)c3ccccc3CN2CCCCC(CN)NCCc2ccccc2)cc1` (stereo not drawn) [TRG 2414-166], for which the half-inhibitory concentration (IC50) worked out at 8.58 µM on MCR-4 and 6.82 µM at MCR-1.

As to `CCCOc1ccc(C2C(CNCc3ccccc3OCC)c3ccccc3CN2CCCCC(CN)NCc2ccccc2)cc1` (stereo not drawn) [TRG 2414-167], the IC50 came to 7.03 µM on MCR-4 and 2.16 µM on MCR-1.

For `CCCOc1ccc(C2C(CNCc3ccccc3OCC)c3ccccc3CN2CCCCC(CN)NCC(C)c2ccc(CC(C)C)cc2)cc1` (stereo not drawn) [TRG 2414-168], the results for the half-maximal inhibitory concentration (IC50) on MCR-4 and at MCR-1 were 44.4 µM and 21.8 µM, respectively.

For the molecule `CCCOc1ccc(C2C(CNCCc3ccccc3OC)c3ccccc3CN2CCCCC(N)CN)cc1` (stereo not drawn) [TRG 2414-169], the half-maximal inhibitory concentration (IC50) turned out to be 5.34 µM at MCR-4 and 0.518 µM at MCR-1.

Regarding `CCCOc1ccc(C2C(CNCCc3ccccc3OC)c3ccccc3CN2CCCCC(CN)NCCc2ccccc2)cc1` (stereo not drawn) [TRG 2414-170], the 50% inhibitory concentration (IC50) on MCR-4 turned out to be 7.34 µM; on MCR-1 it was 1.77 µM.

For `CCCOc1ccc(C2C(CNCCc3ccccc3OC)c3ccccc3CN2CCCCC(CN)NCc2ccccc2)cc1` (stereo not drawn) [TRG 2414-171], the IC50 at MCR-4 is 4.8 µM; on MCR-1, 1.1 µM.

As for `CCCOc1ccc(C2C(CNCCc3ccccc3OC)c3ccccc3CN2CCCCC(CN)NCC(C)c2ccc(CC(C)C)cc2)cc1` (stereo not drawn) [TRG 2414-172], the concentration for half-maximal inhibition (IC50) turned out to be 39.6 µM on MCR-4 and 15.7 µM on MCR-1.

For `CCCOc1ccc(C2C(CNCCc3cccc(Cl)c3)c3ccccc3CN2CCCCC(N)CN)cc1` (stereo not drawn) [TRG 2414-173], the concentration for half-maximal inhibition (IC50) was determined as 4.22 µM on MCR-4 and 1.96 µM at MCR-1.
